Data published in patent US20110280813A1, “NEURAMINIDASE INHIBITORS AND USES THEREOF” (priority 2008, published 2011).
Entries after “also recorded” stand apart in the source; their conditions may differ. Read-outs that look alike come from different tables or passages of the source.

Columns and labels:
[1] = system: S. pneumoniae wild-type D39 biofilm; assay: Biofilm formation after epithelial cell interaction (crystal violet microtitre assay); assay type: cell-based, Streptococcus pneumoniae
Description: (§1) Biofilm assay. Bacterial strains were grown to mid-log phase before being diluted 1:100 in TS broth and catalase. 100 μl of diluted culture was added in triplicate to 96-well flat bottom tissue culture treated plates (Falcon) and left for 18-24 h at 37° C. with 5% CO2. Plates were read at 600 nm to determine levels of growth before being washed in water. Adherent biofilm-forming cells were then stained with 125 μL of 1% crystal violet for 15 min before two further washes in water and allowed to dry. Bound crystal violet was then suspended in 200 μL of ethanol, shaken for 15 min and read at 540 nm.
(§2) Biofilm formation after epithelial cell interaction. Bacterial strains were grown and inoculated onto 1HAEo^− cells as per adherence assay. After the initial PBS washes fresh MEM media was applied before a further 1 h incubation. This removal and addition of fresh media was repeated a further four times before detachment of adherent bacteria using TrypLE Express (Gibco). The detached bacteria were then diluted 1:100 in TS broth and catalase and assayed as per the biofilm assay. Samples were repeated four times, each time in sextuplicate using epithelial cells without bacteria as a negative control.
as §2, with “control. […] Fluorescence microscopy was performed using a Zeiss Observer Z1 inverted fluorescence microscope with ApoTome (Zeiss) for optical sectioning and AxioVision software (v 4.6.2.0, Zeiss). […]” for “control.”

[2] = molecular target: T1, S. pneumoniae neuraminidase (NanA) (Streptococcus pneumoniae, UniProt P62575); assay: Neuraminidase assay with fluorogenic substrate MNN, NanA; assay type: biochemical
T1 construct: residues 116-1035 of S. pneumoniae D39 sialidase A precursor (NanA); made in house; host or cells: E. coli BL21(DE3), pET28a
Description: (§3) Neuraminidase assay. Neuraminidase activity of NanA was detected using the fluorogenic substrate 2′-(4-methylumbelliferyl)-α-D-N-acetylneuraminic acid (MNN, Sigma). Reactions contained 1.5 mM MNN, 1 nM of NanA in 2.5 mM sodium phosphate buffer (pH 5). Reactions were allowed to incubate for 2 h at 37° C. before fluorescence intensity was measured at excitation and emission wavelengths of 360 nm and 465 nm in a Tecan microplate reader (Männedorf, Switzerland). NanPs was assayed as above with 1 mM of enzyme in 7.5 mM sodium chloride and 4 mM calcium chloride. Compounds were screened at a concentration of 100 μM before dose-dependence was established. Compounds were obtained from a variety of sources (Otava, Kyiv, Ukraine; Interbioscreen, Moscow, Russia; Chembridge San Diego, USA; Maybridge, Cornwell, UK; Sigma, St Louis, USA; Princeton, Princeton, USA; Lifechem, Burlington, Canada; Enamine, Kiev, Ukraine). Neuraminidase assays with oseltamivir were performed using the hydrolyzed version of the compound. Divalent cations were supplied in the form of calcium, magnesium, ferric and copper chloride. All neuraminidase assays were performed at least in triplicate.
as §3, with “assay. NanA was purified as previously described (B19).” for “assay.”, “Switzerland).” for “Switzerland). NanPs was assayed as above with 1 mM of enzyme in 7.5 mM sodium chloride and 4 mM calcium chloride. Compounds were screened at a concentration of 100 μM before dose-dependence was established.”, “Kiev,” for “Kyiv,”, “compound. Briefly, a mixture of oseltamivir (300 mg) in methanol (10 ml) was added to 5N NaOH (3 ml). The mixture was stirred overnight and evaporated under reduced pressure. The residue was dissolved in 10 ml H2O and the washed with 5 ml of ethyl acetate. The aqueous solution was acidified with 5N HCl to pH=2-3. Evaporation of water under reduced pressure gave the hydrolyzed product. […]” for “compound.”

[3] = molecular target: T2, P. aeruginosa neuraminidase (NanPs) (Pseudomonas aeruginosa, UniProt G3XCV3); settings: read-out: concentration for 50% inhibition of the P. aeruginosa neuraminidase; from reference A37; cited from earlier work
[4] = molecular target: T2, P. aeruginosa neuraminidase (NanPs); assay: Neuraminidase assay with fluorogenic substrate MNN, NanPs; assay type: biochemical
Description: as §3

[5] = system: S. pneumoniae planktonic cells; assay: Growth of planktonic cells (600 nm reading in biofilm assay); assay type: cell-based, Streptococcus pneumoniae
Description: as §1
as §2, with “control. […] Fluorescence microscopy was performed using a Zeiss Observer Z1 inverted fluorescence microscope with ApoTome (Zeiss) for optical sectioning and AxioVision software (v 4.6.2.0, Zeiss). […]” for “control.”

T1 sequence (P62575 116-1035): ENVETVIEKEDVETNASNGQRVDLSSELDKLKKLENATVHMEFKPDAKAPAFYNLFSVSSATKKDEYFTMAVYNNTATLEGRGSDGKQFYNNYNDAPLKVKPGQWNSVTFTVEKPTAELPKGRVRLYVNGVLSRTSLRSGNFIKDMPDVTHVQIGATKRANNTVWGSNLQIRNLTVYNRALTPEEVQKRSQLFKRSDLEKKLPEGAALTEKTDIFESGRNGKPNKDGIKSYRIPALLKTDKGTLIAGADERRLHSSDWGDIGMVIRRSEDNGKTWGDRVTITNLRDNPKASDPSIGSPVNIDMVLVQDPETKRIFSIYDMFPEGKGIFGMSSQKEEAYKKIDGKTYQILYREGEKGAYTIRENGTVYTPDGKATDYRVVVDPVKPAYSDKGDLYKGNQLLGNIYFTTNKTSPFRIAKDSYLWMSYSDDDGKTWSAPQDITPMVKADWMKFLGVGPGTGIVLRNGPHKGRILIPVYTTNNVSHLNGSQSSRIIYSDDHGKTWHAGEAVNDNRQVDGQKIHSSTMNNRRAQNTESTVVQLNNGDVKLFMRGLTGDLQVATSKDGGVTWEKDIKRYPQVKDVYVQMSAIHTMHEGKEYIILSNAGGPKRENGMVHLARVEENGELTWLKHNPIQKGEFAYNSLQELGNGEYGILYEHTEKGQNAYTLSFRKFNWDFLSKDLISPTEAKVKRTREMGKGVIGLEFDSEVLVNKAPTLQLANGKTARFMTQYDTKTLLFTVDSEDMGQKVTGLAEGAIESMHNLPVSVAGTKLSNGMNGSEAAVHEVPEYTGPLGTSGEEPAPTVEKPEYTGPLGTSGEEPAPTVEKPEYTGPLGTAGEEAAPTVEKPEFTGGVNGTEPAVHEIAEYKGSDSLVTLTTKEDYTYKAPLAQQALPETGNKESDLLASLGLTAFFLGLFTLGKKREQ
T2 sequence (G3XCV3 entry or part of it): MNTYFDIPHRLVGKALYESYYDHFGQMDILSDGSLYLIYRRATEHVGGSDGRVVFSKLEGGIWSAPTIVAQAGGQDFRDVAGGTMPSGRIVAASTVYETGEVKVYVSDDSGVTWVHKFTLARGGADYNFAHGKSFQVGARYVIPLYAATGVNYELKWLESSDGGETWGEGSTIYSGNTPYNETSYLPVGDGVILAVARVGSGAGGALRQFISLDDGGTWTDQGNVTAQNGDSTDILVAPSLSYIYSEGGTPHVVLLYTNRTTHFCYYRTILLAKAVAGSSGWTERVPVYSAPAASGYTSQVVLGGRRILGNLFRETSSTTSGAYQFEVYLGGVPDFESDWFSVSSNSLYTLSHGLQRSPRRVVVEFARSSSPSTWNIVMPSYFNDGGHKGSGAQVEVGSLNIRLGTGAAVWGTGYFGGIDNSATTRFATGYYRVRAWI

CC(=O)N[C@H]1[C@H]([C@H](O)[C@H](O)CO)OC(O)(C(=O)O)C[C@@H]1O (stereo partly drawn) [NANA, N-acetylneuraminic acid, reference compound]
biofilm formation of the wild-type (D39) strain ([1]; 0.2% w/v NANA): decreased biofilm formation; also recorded: reduced biofilm formation
IC50 [2]: 600 µM
IC50 [3]: ~10000 µM

CC(=O)N[C@@H]1[C@@H](O)C[C@](Oc2ccc3c(C)cc(=O)oc3c2)(C(=O)O)O[C@H]1C(O)[C@H](O)CO (stereo partly drawn) [MNN, 2′-(4-methylumbelliferyl)-α-D-N-acetylneuraminic acid, reference compound]
Km [2]: ~1400 µM

COc1ccc([C@H]2[C@H](C(=O)c3ccc(Cl)cc3)C(=O)C(=O)N2c2cccc(C(=O)O)c2)cc1 [XX1]
IC50 [4]: 29 µM
biofilm formation ([1]; 100 μM, inhibitor present during epithelial cell exposure and in microtitre trays): significant reduction in biofilm formation
levels of biofilm formation ([1]; 400 μM, inhibitor present during epithelial cell exposure and in microtitre trays): comparative to the nanA strain
inhibition of NanA, times more effective than DANA ([2]; Example 1): greater than 20 times
inhibition of NanA, times more effective than NANA ([2]; Example 1): > 80 times
inhibition of NanA, times more effective than oseltamivir ([2]; Example 1): > 200 times
inhibition of NanA, times more effective than DANA ([2]; Example 3): greater than 7 times
inhibition of NanA, times more effective than NANA ([2]; Example 3): > 20 times
inhibition of NanA, times more effective than oseltamivir ([2]; Example 3): > 70 times
IC50 ([2]; IC50 against NanA, Example 3, dose response fitted with logarithmic-based trend line): 28 µM
IC50 ([2]; IC50 for the S. pneumoniae neuraminidase, Example 1, dose response fitted with power-based trend line): 8.5 µM
growth of planktonic cells [5]: did not affect growth

CCOC(=O)C1=C[C@@H](OC(CC)CC)[C@H](NC(C)=O)[C@@H](N)C1 [Oseltamivir, oseltamivir, reference compound]
IC50 [4]: ~600 µM
IC50 ([2]; IC50 against NanA, hydrolyzed version of oseltamivir): 2000 µM

[Ca] [calcium]
increase in NanA activity ([2]; 1 mM calcium): 70%

CC(=O)N[C@H]1[C@H]([C@H](O)[C@H](O)CO)OC(C(=O)O)=C[C@@H]1O [DANA, 2,3-dehydro-2-deoxy-N-acetylneuraminic acid]
IC50 [3]: ~10000 µM

[Mg] [magnesium]
increase in NanA activity ([2]; presence of magnesium ions): 50%
